Legend:
Prothrombin [1] = molecular target: T1, Prothrombin (Homo sapiens, UniProt P00734); test: The compound was evaluated for binding affinity against Prothrombin
Prothrombin [2] = molecular target: T1, Prothrombin; test: Concentration required for 50 percent inhibition of Prothrombin

Compound | Ki (Prothrombin [1]) [nM] | IC50 (Prothrombin [2]) [nM]
O=C(NCC1CCNCC1)[C@@H]1CC[C@H]2[C@@H](OCc3ccccc3)CCC(=O)N12 |  | 12600
NCc1ccc(CNC(=O)[C@@H]2CC[C@H]3[C@@H](OCc4ccccc4)CCC(=O)N23)cc1 |  | 12600
N=C(N)c1ccc(CNC(=O)[C@@H]2CC[C@H]3CC[C@@](O)(Cc4ccccc4)C(=O)N32)cc1 | 9 | 20

Further compounds by falling IC50 (Prothrombin [2]), results first:

Ki (Prothrombin [1]) [nM] | IC50 (Prothrombin [2]) [nM] | Compound
 | 12600 | NCc1ccc(CNC(=O)[C@@H]2CC[C@H]3[C@@H](OCc4ccccc4)C[C@H](O)C(=O)N23)cc1
 | 12600 | O=C(NCC1CCNCC1)[C@@H]1CC[C@H]2[C@@H](OCc3ccccc3)C[C@H](O)C(=O)N12
125 | 251 | CO[C@H]1C[C@@](O)(Cc2ccccc2)C(=O)N2[C@H](C(=O)NCc3ccc(C(=N)N)cc3)CC[C@@H]12
125 | 251 | C[C@]1(O)CC[C@@H]2CC[C@@H](C(=O)NCc3ccc(C(=N)N)cc3)N2C1=O

From ChEMBL document CHEMBL1133375, “Exploring the chiral space within the active site of alpha-thrombin with a constrained mimic of D-Phe-Pro-Arg--design, synthesis, inhibitory activity, and X-ray structure of an enzyme-inhibitor complex” (Bioorg Med Chem Lett, 2000)
